{"source": "patent US12390485B2", "about": "“Compounds and methods for suppressing an immune response to substances containing polyethylene glycol” (aAb Therapeutics, LLC, priority 2020, dated 2025)", "key": {"[1]": {"test_system": "anti-PEG antibody response", "assay": "Prophylaxis model: anti-PEG antibody response in PEG-naïve mice immunized with PEG-KLH (serum ELISA)", "format": "in vivo, BALB/c mice", "procedure": "Pre-immunization blood samples were collected by retroorbital bleeding on Day −5. All other blood draws were collected on the days indicated. For testing, pools of serum from each group (n=5) were generated by mixing equal volumes of serum from each mouse in the group. Treatments were as outlined below.\n(§1) ELISAs were carried out as follows. Plates were coated overnight at 4° C. with 0.5 mcg antigen in 100 uL sodium carbonate coating buffer, then washed twice with PBS and blocked with 300 uL Blocking Buffer (nonfat dry milk-PBS (5% w/v) or 1× fish gel (Rockland immunochemicals)) at room temperature for 1 hr. […] After washing 3× for 5 minutes each with PBS, 100 uL TMBE was added to each well and a kinetic read taken for 5 minutes. Plates were allowed to continue the color development reaction for a total of 30 minutes at which time 100 uL stop solution was added and plates read. […]\nIn the present experiment, we first studied the anti-PEG IgM antibody response. […] Anti-PEG IgM antibodies were then measured against PEG-BSA by ELISA from bleeds collected on Day −5 and Day 9 (serum dilution 1:500)(FIG. 2).\nIn the present experiment, detection of IgG antibodies on Day 9 is not generally expected as this antibody subclass generally takes two weeks or more to emerge after immunization. […] The anti-PEG IgG response was assessed by ELISA as described above, using a serum dilution of 1:500."}, "[2]": {"test_system": "anti-PEG antibody response", "assay": "Treatment model: mice with existing anti-PEG antibody response from PEG-KLH (serum ELISA)", "format": "in vivo, BALB/c mice", "settings": "PEG alone before and after PEG-KLH boosting (P/P), Day 21 and Day 28; bleed Day 30; serum 1:500; FIG. 6", "text": "Male BALB/c mice (aged 6-8 weeks) were immunized intraperitoneally (i.p.) with PEG conjugated to KLH (PEG-KLH) using Complete Freund's adjuvant on Day 1 (50 mcg) and boosted with the same conjugate using Incomplete Freund's adjuvant on Day 18 (25 mcg). Pre-immunization blood samples were collected by retroorbital bleeding on Day −5. All other blood draws were collected on the days indicated. For testing, pools of serum from each group (n=5) were generated by mixing equal volumes of serum from each mouse in the group. Treatments were as outlined below.\nas §1\nIn this treatment scenario, to generate anti-PEG antibodies prior to treatment, mice were first immunized with PEG-KLH conjugate on Day 0 and boosted on Day 22 (FIG. 5). […] Anti-PEG IgG antibodies were measured on Day 30 by ELISA as indicated above (serum diluted 1:500). […]"}}, "data": [{"substance": "MeO-23PEG-Ethanolamine", "values": [{"measurement": "anti-PEG IgG antibodies (ELISA)", "setting": "[1]; treatment Day 0 and Day 7, additional PEG-KLH immunization Day 22, bleed Day 26, serum 1:500, FIG. 4", "value": "readily detected"}, {"measurement": "anti-PEG IgM antibodies (ELISA against PEG-BSA)", "setting": "[1]; treatment i.p. Day 0 and Day 7, PEG-KLH Day 1, bleed Day 9, pooled serum 1:500, FIG. 3", "value": "readily detected"}, {"measurement": "anti-PEG IgG antibodies", "setting": "[2]", "value": "had no effect on anti-PEG IgG antibodies"}]}]}
